Data on 16 compounds can be found in patent US12209085B2, “RET inhibitors, pharmaceutical compositions and uses thereof” (SUNSHINE LAKE PHARMA CO., LTD., priority 2018, dated 2025).

Assay type in all cases: biochemical
Conditions in all cases: HTRF method
(Time-resolved FRET reads energy transfer from a long-lived donor to a nearby acceptor.)

In assay [1] the target is Ret wt (Homo sapiens (Human), UniProt P07949). As to the kind of experiment: HTRF kinase inhibition assay, Ret wt. The source says: (§1) • 1. […] 1) • 18) Echo (Labcyte, 550) • 3.
Ret wt, sequence (P07949 29-1114): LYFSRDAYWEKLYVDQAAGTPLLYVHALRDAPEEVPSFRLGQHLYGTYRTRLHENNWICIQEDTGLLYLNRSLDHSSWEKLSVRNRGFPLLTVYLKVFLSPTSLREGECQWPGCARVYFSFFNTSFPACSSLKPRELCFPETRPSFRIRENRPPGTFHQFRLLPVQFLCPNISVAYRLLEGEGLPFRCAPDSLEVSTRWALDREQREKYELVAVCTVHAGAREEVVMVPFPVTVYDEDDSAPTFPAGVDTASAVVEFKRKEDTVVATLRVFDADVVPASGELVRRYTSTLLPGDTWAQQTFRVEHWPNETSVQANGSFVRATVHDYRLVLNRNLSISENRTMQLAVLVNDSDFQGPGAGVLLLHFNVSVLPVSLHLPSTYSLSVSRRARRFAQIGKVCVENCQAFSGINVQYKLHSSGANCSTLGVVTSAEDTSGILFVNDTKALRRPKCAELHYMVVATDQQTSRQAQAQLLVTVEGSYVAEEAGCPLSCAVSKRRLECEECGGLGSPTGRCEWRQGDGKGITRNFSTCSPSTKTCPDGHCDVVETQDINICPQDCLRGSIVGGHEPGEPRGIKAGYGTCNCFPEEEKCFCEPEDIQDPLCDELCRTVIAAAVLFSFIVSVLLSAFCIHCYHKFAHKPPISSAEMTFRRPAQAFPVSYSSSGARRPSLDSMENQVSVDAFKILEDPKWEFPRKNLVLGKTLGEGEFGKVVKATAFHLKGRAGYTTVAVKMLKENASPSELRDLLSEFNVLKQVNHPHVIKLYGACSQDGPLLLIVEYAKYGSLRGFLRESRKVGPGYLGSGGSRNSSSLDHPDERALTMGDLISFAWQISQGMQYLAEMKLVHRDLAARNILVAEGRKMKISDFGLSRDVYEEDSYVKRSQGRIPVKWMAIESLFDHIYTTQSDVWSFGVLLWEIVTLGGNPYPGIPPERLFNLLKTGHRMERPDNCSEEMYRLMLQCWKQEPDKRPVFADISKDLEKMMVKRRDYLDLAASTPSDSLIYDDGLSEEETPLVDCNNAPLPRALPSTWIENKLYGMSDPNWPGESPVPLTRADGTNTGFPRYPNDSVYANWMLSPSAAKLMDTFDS
(§2) [formula] • Ratiopositive control: average of CEP-32496 readings in all positive control wells • Rationegative control: average of DMSO readings in all negative control wells • Wherein, the chemical name of CEP-32496 is: N-[3-[(6,7-dimethoxy-4-quinazolinyl)oxy]phenyl]-N′-[5-(2,2,2-trifluoro-1,1-dimethylethyl)-3-isoxazolyl]urea. • 4.3 Calculation of the IC50 and Drawing of the inhibition curve of the compound: • The IC50 (half inhibitory concentration) of the compound was obtained using the following non-linear fitting formula: Data analysis was performed using Graphpad 6.0 software. Y=Bottom+(Top−Bottom)/(1+10^((Log IC50−X)*Hill Slope)) • X: compound concentration log value Y: inhibition, % • 5.

Assay [2] has as its target CCDC6-RET (Homo sapiens (Human), UniProt P07949+Q16204). In words: HTRF kinase inhibition assay, CCDC6-RET.
From the text: as §1, §2

The target in assay [3] is Ret M918T (Homo sapiens (Human), UniProt P07949, M918T). As to the kind of experiment: HTRF kinase inhibition assay, Ret M918T.
Ret M918T, sequence (P07949 29-1114 M918T): as the sequence (P07949 29-1114) above, with M890T counted along it
From the text: as §1, §2

The target in assay [4] is Ret V804L (Homo sapiens (Human), UniProt P07949, V804L). As to the kind of experiment: HTRF kinase inhibition assay, Ret V804L.
Ret V804L, sequence (P07949 29-1114 V804L): as the sequence (P07949 29-1114) above, with V776L counted along it
From the text: as §1, §2

The target in assay [5] is Ret V804M (Homo sapiens (Human), UniProt P07949, V804M). As to the kind of experiment: HTRF kinase inhibition assay, Ret V804M.
Ret V804M, sequence (P07949 29-1114 V804M): as the sequence (P07949 29-1114) above, with V776M counted along it
From the text: as §1, §2

The structures appear in SMILES notation.

CCDC6-RET, sequence (P07949 other isoform, or with tags, fused parts or gaps): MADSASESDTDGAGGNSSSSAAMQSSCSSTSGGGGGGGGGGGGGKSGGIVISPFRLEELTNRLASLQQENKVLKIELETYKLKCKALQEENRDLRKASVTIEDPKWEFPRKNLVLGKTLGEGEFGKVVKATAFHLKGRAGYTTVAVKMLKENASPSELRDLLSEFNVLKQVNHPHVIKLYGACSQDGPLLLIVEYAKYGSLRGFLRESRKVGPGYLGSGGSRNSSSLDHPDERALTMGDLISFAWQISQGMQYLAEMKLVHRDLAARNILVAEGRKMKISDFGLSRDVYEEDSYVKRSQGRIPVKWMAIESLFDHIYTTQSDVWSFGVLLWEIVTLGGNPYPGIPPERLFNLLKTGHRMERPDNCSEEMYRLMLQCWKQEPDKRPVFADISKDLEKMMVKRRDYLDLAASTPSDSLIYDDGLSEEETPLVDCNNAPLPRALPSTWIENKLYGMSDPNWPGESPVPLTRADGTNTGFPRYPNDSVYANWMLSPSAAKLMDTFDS

By IC50 is commonly meant the point on the concentration scale where inhibition reaches its midpoint. A higher IC50 goes with weaker potency. `Cn1cc(-c2cc(-c3ccc(N4CCN(C(=O)C#Cc5ccccc5)CC4)nc3)c3c(C#N)cnn3c2)cn1` [Example 1, 3-cyano-6-(1-methyl-1H-pyrazol-4-yl)-4-(6-(4-(3-phenylpropioloyl)piperazin-1-yl)pyridine-3-yl)pyrazolo[1,5-a]pyridine]: the IC50 in assay [1] is 0.61 nM; in assay [2], 0.87 nM; in assay [3], 0.97 nM; in assay [4] it was 0.95 nM; in assay [5] it was 5.53 nM.
As to `C#Cc1ccc(C(=O)N2CCN(c3ccc(-c4cc(-c5cnn(C)c5)cn5ncc(C#N)c45)cn3)CC2)cc1` [Example 3, 3-cyano-4-(6-(4-(4-ethynylbenzoyl)piperazin-1-yl)pyridin-3-yl)-6-(1-methyl-1H-pyrazol-4-yl)pyrazolo[1,5-a]pyridine], the IC50 came out at 0.27 nM in assay [1]; 0.8 nM in assay [2]; 0.7 nM in assay [3]; 0.3 nM in assay [4]; 16.6 nM in assay [5].
Turning to `C#Cc1cccc(C(=O)NC2(C)CCN(c3ccc(-c4cc(-c5cnn(C)c5)cn5ncc(C#N)c45)cn3)CC2)c1` [Example 4, N-(1-(5-(3-cyano-6-(1-methyl-1H-pyrazol-4-yl)pyrazolo[1,5-a]pyridin-4-yl)pyridin-2-yl)-4-methylpiperidin-4-yl)-3-ethynylbenzamide], the IC50 in assay [1] is 0.27 nM; in assay [2], 0.6 nM; in assay [3], 2.8 nM; in assay [4] it was 0.2 nM; in assay [5] it was 2.3 nM.
As for `COc1ccc(C#CCN2C3CC2CN(c2ccc(-c4cc(-c5cnn(C)c5)cn5ncc(C#N)c45)cn2)C3)cn1` [Example 194, 4-(6-(6-(3-(6-methoxypyridin-3-yl)prop-2-yn-1-yl)-3,6-diazabicyclo[3.1.1]heptane-3-yl)pyridin-3-yl)-6-(1-methyl-1H-pyrazol-4-yl)pyrazolo[1,5-a]pyridin-3-carbonitrile], the IC50 in assay [1] was 0.68 nM; in assay [2], 0.26 nM; in assay [3], 0.62 nM; in assay [4], 0.23 nM; in assay [5] it was 7.07 nM.
For `COc1cncc(C#CCN2C3CC2CN(c2ccc(-c4cc(-c5cnn(C)c5)cn5ncc(C#N)c45)cn2)C3)c1` [Example 215, 4-(6-(6-(3-(5-methoxypyridin-3-yl)prop-2-yn-1-yl)-3,6-diazabicyclo[3.1.1]heptane-3-yl)pyridin-3-yl)-6-(1-methyl-1H-pyrazol-4-yl)pyrazolo[1,5-a]pyridin-3-carbonitrile], in that order: 0.16 nM, 0.16 nM, 0.183 nM, 0.06 nM and 0.42 nM.
With `COc1cncc(C#CC(=O)N2CCN(c3ccc(-c4cc(-c5cnn(C)c5)cn5ncc(C#N)c45)cn3)CC2)c1` [Example 272, 4-(6-(4-(3-(5-methoxypyridin-3-yl)propioloyl)piperazin-1-yl)pyridin-3-yl)-6-(1-methyl-1H-pyrazol-4-yl)pyrazolo[1,5-a]pyridine-3-carbonitrile], the results for the IC50 in assay [1] and in assay [5] were 0.72 nM and 5.26 nM, respectively.
For `Cn1cc(-c2cc(-c3ccc(N4CC5CC(C4)N5C(=O)C#Cc4cccnc4)nc3)c3c(C#N)cnn3c2)cn1` [Example 273, 6-(1-methyl-1H-pyrazol-4-yl)-4-(6-(6-(3-(pyridin-3-yl)propioloyl]-3,6-diazabicyclo[3.1.1]heptan-3-yl]-3-pyridin]pyrazolo[1,5-a]pyridine-3-carbonitrile], in that order: 4.28 nM and 82.6 nM.
For `C#CC#CCN1CCN(c2ccc(-c3cc(-c4cnn(C)c4)cn4ncc(C#N)c34)cn2)CC1` [Example 275, 6-(1-methyl-1H-pyrazol-4-yl)-4-(6-(4-(penta-2,4-diyn-1-yl)piperazin-1-yl)pyridine-3-yl)pyrazolo[1,5-a]pyridine-3-carbonitrile], in that order: 0.58 nM and 8.22 nM.
For `C#CCNC1(C)CCN(c2ccc(-c3cc(-c4cnn(C)c4)cn4ncc(C#N)c34)cn2)CC1` [Example 277, 6-(1-methyl-1H-pyrazol-4-yl)-4-(6-(4-methyl-4-(prop-2-yn-1-ylamino)piperidin-1-yl)pyridin-3-yl)pyrazolo[1,5-a]pyridine-3-carbonitrile], in that order: 1.38 nM and 10.3 nM.
`C#Cc1ccc(OC2CN(c3ccc(-c4cc(-c5cnn(C6CC6)c5)cn5ncc(C#N)c45)cn3)C2)cn1` [Example 280, 6-(1-cyclopropyl-1H-pyrazol-4-yl)-4-(6-(3-((6-ethynylpyridin-3-yl)oxy)azetidin-1-yl)pyridin-3-yl)pyrazolo[1,5-a]pyridine-3-carbonitrile]: the IC50 in assay [1] amounted to 0.43 nM; in assay [5], 0.92 nM.
For `C#Cc1ccc(OC2CN(c3ccc(-c4cc(-c5c(C)noc5C)cn5ncc(C#N)c45)cn3)C2)cn1` [Example 282, 6-(3,5-dimethylisoxazol-4-yl)-4-(6-(3-((6-ethynylpyridin-3-yl)oxy)azetidin-1-yl)pyridin-3-yl)pyrazolo[1,5-a]pyridine-3-carbonitrile], in that order: 2.9 nM and 60.8 nM.
For `C#Cc1ccc(OC2CN(c3ccc(-c4cc(-c5cnn(C(F)F)c5)cn5ncc(C#N)c45)cn3)C2)cn1` [Example 283, 6-(1-(difluoromethyl)-1H-pyrazol-4-yl)-4-(6-(3-((6-ethynylpyridin-3-yl)oxy)azetidin-1-yl)pyridin-3-yl)pyrazolo[1,5-a]pyridine-3-carbonitrile], in that order: 0.39 nM and 2.29 nM.
For `C#Cc1ccc(O[C@H]2CCN(c3ccc(-c4cc(-c5cnn(C(F)F)c5)cn5ncc(C#N)c45)cn3)C2)cn1` [Example 284, (S)-6-(1-(difluoromethyl)-1H-pyrazol-4-yl)-4-(6-(3-((6-ethynylpyridin-3-yl)oxy)pyrrolidin-1-yl)pyridin-3-yl) pyrazolo[1,5-a]pyridine-3-carbonitrile], in that order: 1.63 nM and 23 nM.
As to `C#Cc1ccc(OC2CN(c3ccc(-c4cc(-c5cnn(C(F)F)c5)cn5ncc(C#N)c45)cn3)C2)cc1` [Example 285, 6-(1-(difluoromethyl)-1H-pyrazol-4-yl)-4-(6-(3-(4-ethynylphenoxy)azetidin-1-yl)pyridin-3-yl)pyrazolo[1,5-a]pyridine-3-carbonitrile], the IC50 in assay [1] amounted to 0.56 nM; in assay [5] it was 0.71 nM.
In the case of `C#Cc1ccc(O[C@@H]2CCN(c3ccc(-c4cc(-c5cnn(C(F)F)c5)cn5ncc(C#N)c45)cn3)C2)cc1` [Example 286, (R)-6-(1-(difluoromethyl)-1H-pyrazol-4-yl)-4-(6-(3-(4-ethynylphenoxy)pyrrolidin-1-yl)pyridin-3-yl)pyrazolo[1,5-a]pyridine-3-carbonitrile], the IC50 in assay [1] and in assay [5] was 0.85 nM in each case.
For the compound `C#Cc1ccc(OC2CN(c3ccc(-c4cc(-c5cnn(C)c5)cn5ncc(C#N)c45)cn3)C2)cn1` [Example 287, 4-(6-(3-((6-ethynylpyridin-3-yl)oxy)azetidin-1-yl)pyridin-3-yl)-6-(1-methyl-1H-pyrazol-4-yl) pyrazolo[1,5-a]pyridine-3-carbonitrile], the IC50 in assay [1] turned out to be 0.13 nM; in assay [5] it was 0.2 nM.
